Experimental data from US6927214B1 (Novo Nordisk A/S, priority 1999, dated 2005).

Molecular target: T1, human glucagon receptor (Homo sapiens, UniProt P47871)
T1 construct: expressed in transfected cells
Test: Stimulation of cAMP formation in a cell line expressing the cloned human glucagon receptor
Assay type: biochemical
Details: concentrations tested up to 100 μM

T1 sequence (P47871 26-477): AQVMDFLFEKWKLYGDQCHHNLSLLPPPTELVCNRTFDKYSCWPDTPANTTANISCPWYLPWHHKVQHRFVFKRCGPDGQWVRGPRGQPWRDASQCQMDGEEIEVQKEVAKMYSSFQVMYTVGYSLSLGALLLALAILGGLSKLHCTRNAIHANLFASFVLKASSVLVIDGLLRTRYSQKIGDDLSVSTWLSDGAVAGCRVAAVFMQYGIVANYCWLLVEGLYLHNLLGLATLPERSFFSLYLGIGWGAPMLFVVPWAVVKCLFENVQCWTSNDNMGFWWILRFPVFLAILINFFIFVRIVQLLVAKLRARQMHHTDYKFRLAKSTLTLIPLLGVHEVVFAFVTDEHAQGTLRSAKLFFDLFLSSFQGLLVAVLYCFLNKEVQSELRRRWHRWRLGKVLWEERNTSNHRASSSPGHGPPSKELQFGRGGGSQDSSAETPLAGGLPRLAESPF

Compound	agonist activity (cAMP formation)
Cc1nnc(Sc2nc3cc(Cl)c(Cl)cc3nc2C(F)(F)F)s1 [Example 2, 6,7-Dichloro-2-trifluoromethyl-3-(5-methyl-1,3,4-thiadiazol-2-ylsulfanyl)quinoxaline]	no measurable activity

Molecular target: T2, human GLP-1 receptor (Homo sapiens, UniProt P43220)
T2 sequence (P43220 24-463): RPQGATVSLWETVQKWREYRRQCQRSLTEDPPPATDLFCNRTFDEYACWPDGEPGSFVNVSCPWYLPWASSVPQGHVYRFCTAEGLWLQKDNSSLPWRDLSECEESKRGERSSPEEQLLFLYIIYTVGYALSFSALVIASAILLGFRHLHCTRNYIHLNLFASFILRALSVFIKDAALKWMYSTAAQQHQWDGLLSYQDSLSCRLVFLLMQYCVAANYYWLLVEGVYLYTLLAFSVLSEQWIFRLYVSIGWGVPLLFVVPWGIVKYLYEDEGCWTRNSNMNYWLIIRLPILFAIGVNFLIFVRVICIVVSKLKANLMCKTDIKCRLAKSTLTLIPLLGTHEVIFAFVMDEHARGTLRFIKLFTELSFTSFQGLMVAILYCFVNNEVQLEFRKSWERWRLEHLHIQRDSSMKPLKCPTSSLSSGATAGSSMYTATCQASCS
Test: biochemical
Details: not given

Compound	EC50 [nM]	Emax [%]	Emax at 0.33 µM [%]	Emax at 1 µM [%]	Emax at 0.01 µM [%]	Emax at 3.3 µM [%]
CC(C)c1nc2cc(Cl)c(Cl)cc2nc1S(=O)(=O)c1cncn1C [Example 65, 6,7-Dichloro-2-isopropyl-3-(1-methyl-1H-imidazol-5-ylsulfonyl)quinoxaline]	650	53				
CCCc1nc2cc(Cl)c(Cl)cc2nc1S(C)(=O)=O [Example 92, 6,7-Dichloro-2-(methylsulfonyl)-3-propylquinoxaline]	770	53				
CC(C)(C)Nc1nc2cc(Cl)c(Cl)cc2nc1S(C)(=O)=O [Example 103, N-[6,7-Dichloro-3-(methylsulfonyl)-2-quinoxalinyl]N-tert-butylamine]	50	80				
CS(=O)(=O)c1nc2cc(Cl)c(Cl)cc2nc1NC1CCCc2ccccc21 (stereo not shown) [Example 108, N-[6,7-Dichloro-3-(methylsulfonyl)-2-quinoxalinyl]-N-(1,2,3,4-tetrahydro-naphthalene-1-yl)amine]	680	54				
CCC(C)(C)Nc1nc2cc(Cl)c(Cl)cc2nc1S(C)(=O)=O [Example 135, (6,7-Dichloro-3-(methylsulfonyl)═quinoxalin-2-yl)tert-pentylamine]	290	76				
CC(C)Nc1nc2cc(Cl)c(Cl)cc2nc1S(=O)(=O)Cc1ccc(OC(F)F)cc1 [Example 136, (6,7-Dichloro-3-{[4-(difluoromethoxy)benzyl]sulfonyl}quinoxalin-2-yl)isopropylamine]	820	64				
CC(C)Sc1nc2cc(Cl)c(Cl)cc2nc1S(C)(=O)=O [Example 137, 6,7-Dichloro-2-(isopropylsulfanyl)-3-(methylsulfonyl)quinoxaline]	660	46				
Cn1ccnc1S(=O)(=O)c1nc2cc(Cl)c(Cl)cc2nc1NC(C)(C)C [Example 138, (6,7-Dichloro-3-[(1-methyl-1H-imidazol-2-yl)sulfonyl]quinoxalin-2-yl)-tert-butylamine]	540	72				
O=[N+]([O-])c1cc2nc(-c3ccccc3)c(C(F)(F)F)nc2cc1[N+](=O)[O-] [Example 145, 6,7-Dinitro-2-phenyl-3-trifluoromethylquinoxaline]			36			
O=[N+]([O-])c1cc2ncc(-c3ccc(C(F)(F)F)cc3)nc2cc1[N+](=O)[O-] [Example 147, 6,7-Dinitro-2-(4-trifluoromethylphenyl)quinoxaline]				31		
FC(F)(F)c1nc2cc(Cl)c(Cl)cc2nc1Sc1nccs1 [Example 156, 6,7-Dichloro-2-(thiazol-2-ylsulfanyl)-3-trifluoromethyl-quinoxaline]					42	
O=C(c1ccccc1)c1ccc2nc(Br)c(C(F)(F)F)nc2c1 [Example 157, (2-Bromo-3-trifluoromethyl-quinoxalin-6-yl)phenyl Methanone]						15
CC(C)CCS(=O)(=O)c1nc2cc(Cl)ccc2nc1C(F)(F)F [Example 169, 6-Chloro-3-(3-methylbutylsulfonyl)-2-trifluoromethyl-quinoxaline]				19		
CC(C)CCS(=O)(=O)c1nc2ccc(Cl)cc2nc1C(F)(F)F [Example 170, 6-Chloro-2-(3-methylbutyl-1-sulfonyl)-3-trifluoromethyl-quinoxaline]				33		

Molecular target: T2, human GLP-1 receptor
Test: Saturation experiments with labelled GLP-1 tracer on plasma membranes, with or without example 2
Assay type: binding
Design: expressed in transfected cells; host or cells: BHK (baby hamster kidney) cells; plasma membranes prepared from them
Details: 10 μM compound, saturation experiment

Compound	effect on the affinity of the receptor for GLP-1
Cc1nnc(Sc2nc3cc(Cl)c(Cl)cc3nc2C(F)(F)F)s1 [Example 2, 6,7-Dichloro-2-trifluoromethyl-3-(5-methyl-1,3,4-thiadiazol-2-ylsulfanyl)quinoxaline]	changed the affinity of the receptor for GLP-1

Tested on: not given
Test: not given
Details: not given

Compound	melting point [°C]
Cc1nnc(Sc2nc3ccc(C(=O)c4ccccc4)cc3nc2C(F)(F)F)s1 [Example 158, [2-(5-Methyl-[1,3,4]thiadiazol-2-ylsulfanyl)-3-trifluorophenylquinoxalin-6-yl]phenyl Methanone]	160 to 162

Molecular target: T2, human GLP-1 receptor
Test: not given
Design: Emax: dose or concentration left out as unconfirmed
Details: not given

Compound	EC50 [nM]	Emax [%]
Cc1nnc(Sc2nc3cc(Cl)c(Cl)cc3nc2C(F)(F)F)s1 [Example 2, 6,7-Dichloro-2-trifluoromethyl-3-(5-methyl-1,3,4-thiadiazol-2-ylsulfanyl)quinoxaline]	310	100
Cc1nnc([S+]([O-])c2nc3cc(Cl)c(Cl)cc3nc2C(C)C)s1 (stereo not shown) [Example 6, 6,7-Dichloro-2-isopropyl-3-(5-methyl-1,3,4-thiadiazol-2-ylsulfinyl)quinoxaline]	170	94
Cc1nnc(S(=O)(=O)c2nc3cc(Cl)c(Cl)cc3nc2C(C)C)s1 [Example 7, 6,7-Dichloro-2-isopropyl-3-(5-methyl-1,3,4-thiadiazol-2-ylsulfonyl)quinoxaline]	78	120
CS(=O)(=O)c1nc2cc(Cl)c(Cl)cc2nc1C(F)(F)F [Example 19, 6,7-Dichloro-2-methanesulfonyl-3-trifluoromethylquinoxaline]	160	120
CC(C)S(=O)(=O)c1nc2cc(Cl)c(Cl)cc2nc1C(F)(F)F [Example 20, 6,7-Dichloro-2-trifluoromethyl-3-isopropylsulfonylquinoxaline]	68	140
O=Cc1cc2cc(Cl)ccc2nc1Cl [Example 25, 2,6-Dichloroquinoline-3-carbaldehyde]		15
CSc1nc2ccc(Cl)cc2cc1C=O [Example 29, 6-Chloro-2-methylsulfanylquinoline-3-carbaldehyde]		13
Cc1nc2cc(Cl)ccc2nc1Cl [Example 46, 2,6-Dichloro-3-methylquinoxaline]	> 33000	0
COc1nc2ccc(Cl)cc2nc1Cl [Example 47, 2,7-Dichloro-3-methoxyquinoxaline]	10000	50
Cc1nc2cc(Cl)c(Cl)cc2nc1S(C)(=O)=O [Example 56, 6,7-Dichloro-3-methyl-2-(methylsulfonyl)quinoxaline]	78	130
